In patent publication US6723753B2, “Substituted n-benzyl-n-phenyl aminoalcohol compounds useful for inhibiting cholesteryl ester transfer protein activity” (Pharmacia Corporation, priority 2002, dated 2004):

Biological target: T1, CETP (Homo sapiens, UniProt P11597)
T1 sequence (P11597 18-493): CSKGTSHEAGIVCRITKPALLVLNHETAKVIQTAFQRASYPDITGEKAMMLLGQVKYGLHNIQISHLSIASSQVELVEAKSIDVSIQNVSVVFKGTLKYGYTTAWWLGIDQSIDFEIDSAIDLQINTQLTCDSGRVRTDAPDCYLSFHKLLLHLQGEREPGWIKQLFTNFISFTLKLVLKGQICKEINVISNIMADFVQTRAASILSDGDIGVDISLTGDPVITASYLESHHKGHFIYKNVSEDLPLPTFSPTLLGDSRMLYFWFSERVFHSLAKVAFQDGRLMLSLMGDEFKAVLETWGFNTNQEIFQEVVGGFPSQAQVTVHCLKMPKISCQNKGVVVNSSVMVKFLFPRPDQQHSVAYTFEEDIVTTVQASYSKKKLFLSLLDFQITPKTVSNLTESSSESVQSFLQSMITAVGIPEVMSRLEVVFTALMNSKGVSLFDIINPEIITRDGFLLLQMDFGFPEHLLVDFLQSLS
Test: Assay of CETP Inhibition using Purified Components (Reconstituted Buffer Assay)
Format: biochemical
Design: made in house; host or cells: CHO cells (serum-free conditioned medium)
Conditions: Inhibition of CETP activity in reconstituted buffer assay; transfer of [3H]CE from HDL to LDL; read-out: IC50
Outline: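 Transfer of radiolabeled cholesteryl ester from HDL to LDL was run for 2 h at 37 °C in pH 7.4 Tris buffer with 1% BSA, using purified CHO-expressed human CETP. Precipitated LDL radioactivity, measured by scintillation after dextran sulfate/MgCl2 precipitation and filtration, yielded the IC50.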

Row | IC50 [µM] | Structure (SMILES)
1 | 13 | CC(C)NC(=O)c1cccc(N(Cc2cccc(OC(F)(F)C(F)F)c2)CC(O)C(F)(F)F)c1 (stereo not drawn) [Example 457]
2 | 13 | CCCCNC(=O)c1cccc(N(Cc2cccc(OC(F)(F)C(F)F)c2)CC(O)C(F)(F)F)c1 (stereo not drawn) [Example 458]
3 | 3.3 | O=C(NC1CCCCC1)c1cccc(N(Cc2cccc(OC(F)(F)C(F)F)c2)CC(O)C(F)(F)F)c1 (stereo not drawn) [Example 459]
4 | 3 | CC(C)(C)NC(=O)c1cccc(N(Cc2cccc(OC(F)(F)C(F)F)c2)CC(O)C(F)(F)F)c1 (stereo not drawn) [Example 460]
5 | 13 | O=C(NC1CCCC1)c1cccc(N(Cc2cccc(OC(F)(F)C(F)F)c2)CC(O)C(F)(F)F)c1 (stereo not drawn) [Example 461]
6 | 12 | CC(C)(C)CNC(=O)c1cccc(N(Cc2cccc(OC(F)(F)C(F)F)c2)CC(O)C(F)(F)F)c1 (stereo not drawn) [Example 462]
7 | 13 | O=C(NCC(F)(F)F)c1cccc(N(Cc2cccc(OC(F)(F)C(F)F)c2)CC(O)C(F)(F)F)c1 (stereo not drawn) [Example 463]
8 | 3 | O=C(NCC(F)(F)C(F)(F)C(F)(F)F)c1cccc(N(Cc2cccc(OC(F)(F)C(F)F)c2)CC(O)C(F)(F)F)c1 (stereo not drawn) [Example 464]
9 | > 50 | O=C(NCc1ccccc1)c1cccc(N(Cc2cccc(OC(F)(F)C(F)F)c2)CC(O)C(F)(F)F)c1 (stereo not drawn) [Example 465]
10 | 12 | O=C(NCc1cccc(OC(F)(F)F)c1)c1cccc(N(Cc2cccc(OC(F)(F)C(F)F)c2)CC(O)C(F)(F)F)c1 (stereo not drawn) [Example 466]
11 | > 50 | O=C(NCc1ccc(F)cc1)c1cccc(N(Cc2cccc(OC(F)(F)C(F)F)c2)CC(O)C(F)(F)F)c1 (stereo not drawn) [Example 467]
12 | 35 | CN(C(=O)c1cccc(N(Cc2cccc(OC(F)(F)C(F)F)c2)CC(O)C(F)(F)F)c1)c1ccccc1 (stereo not drawn) [Example 468]
13 | > 50 | CN(Cc1ccccc1)C(=O)c1cccc(N(Cc2cccc(OC(F)(F)C(F)F)c2)CC(O)C(F)(F)F)c1 (stereo not drawn) [Example 469]
14 | > 50 | CN1CCN(C(=O)c2cccc(N(Cc3cccc(OC(F)(F)C(F)F)c3)CC(O)C(F)(F)F)c2)CC1 (stereo not drawn) [Example 470]
15 | 11 | O=C(c1cccc(N(Cc2cccc(OC(F)(F)C(F)F)c2)CC(O)C(F)(F)F)c1)N1CCCC1 (stereo not drawn) [Example 472]
16 | 6 | OC(CN(Cc1cccc(OC(F)(F)C(F)F)c1)c1cccc(Sc2ccncc2)c1)C(F)(F)F (stereo not drawn) [Example 474]
17 | > 50 | OC(CN(Cc1cccc(OC(F)(F)C(F)F)c1)c1cccc(SC2CCNCC2)c1)C(F)(F)F (stereo not drawn) [Example 476]
18 | 11 | OC(CN(Cc1cccc(OC(F)(F)C(F)F)c1)c1cccc(SCc2ccccn2)c1)C(F)(F)F (stereo not drawn) [Example 477]
19 | 1.8 | CC(=O)c1ccc(Sc2cccc(N(Cc3cccc(OC(F)(F)C(F)F)c3)CC(O)C(F)(F)F)c2)cc1 (stereo not drawn) [Example 478]
20 | > 50 | CS(=O)(=O)c1ccc(Sc2cccc(N(Cc3cccc(OC(F)(F)C(F)F)c3)CC(O)C(F)(F)F)c2)cc1 (stereo not drawn) [Example 479]
21 | 1.9 | OC(CN(Cc1cccc(OC(F)(F)C(F)F)c1)c1cccc(SCc2cc(Cl)cs2)c1)C(F)(F)F (stereo not drawn) [Example 480]
22 | 4.8 | CC(C)S(=O)(=O)c1cccc(N(Cc2cccc(OC(F)(F)C(F)F)c2)CC(O)C(F)(F)F)c1 (stereo not drawn) [Example 482, 3-[[3-[(1-methylethyl)sulfonyl]phenyl][[3-(1,1,2,2-tetrafluoroethoxy)-phenyl]methyl]amino]-1,1,1-trifluoro-2-propanol]
23 | 2.2 | O=[N+]([O-])c1ccc(S(=O)(=O)c2cccc(N(Cc3cccc(OC(F)(F)C(F)F)c3)CC(O)C(F)(F)F)c2)cc1 (stereo not drawn) [Example 483]
24 | > 50 | O=S(=O)(c1cccc(N(Cc2cccc(OC(F)(F)C(F)F)c2)CC(O)C(F)(F)F)c1)C1CCNCC1 (stereo not drawn) [Example 484]

Row | IC50 [µM] | Structure (SMILES)
25 | 10 | CC(=O)c1ccc(S(=O)(=O)c2cccc(N(Cc3cccc(OC(F)(F)C(F)F)c3)CC(O)C(F)(F)F)c2)cc1 (stereo not drawn) [Example 486]
26 | > 50 | CS(=O)(=O)c1ccc(S(=O)(=O)c2cccc(N(Cc3cccc(OC(F)(F)C(F)F)c3)CC(O)C(F)(F)F)c2)cc1 (stereo not drawn) [Example 487]
27 | 2.2 | COC(=O)COc1cccc(N(Cc2cccc(OC(F)(F)C(F)F)c2)CC(O)C(F)(F)F)c1 (stereo not drawn) [Example 490]
28 | 4.4 | N#CCOc1cccc(N(Cc2cccc(OC(F)(F)C(F)F)c2)CC(O)C(F)(F)F)c1 (stereo not drawn) [Example 491]
29 | 1.2 | CC(C)COc1cccc(N(Cc2cccc(OC(F)(F)C(F)F)c2)CC(O)C(F)(F)F)c1 (stereo not drawn) [Example 492]
30 | 1.8 | CCC(=O)COc1cccc(N(Cc2cccc(OC(F)(F)C(F)F)c2)CC(O)C(F)(F)F)c1 (stereo not drawn) [Example 493]
31 | 1.5 | CC(=O)CCCCOc1cccc(N(Cc2cccc(OC(F)(F)C(F)F)c2)CC(O)C(F)(F)F)c1 (stereo not drawn) [Example 495]
32 | 1.2 | COC(=O)CCCCOc1cccc(N(Cc2cccc(OC(F)(F)C(F)F)c2)CC(O)C(F)(F)F)c1 (stereo not drawn) [Example 496]
33 | 42 | O=S(=O)(CCOc1cccc(N(Cc2cccc(OC(F)(F)C(F)F)c2)CC(O)C(F)(F)F)c1)c1ccccc1 (stereo not drawn) [Example 497]
34 | > 50 | NC(=O)COc1cccc(N(Cc2cccc(OC(F)(F)C(F)F)c2)CC(O)C(F)(F)F)c1 (stereo not drawn) [Example 500]
35 | 3.6 | N#CCCCOc1cccc(N(Cc2cccc(OC(F)(F)C(F)F)c2)CC(O)C(F)(F)F)c1 (stereo not drawn) [Example 501]
36 | 5.7 | CC(Oc1cccc(N(Cc2cccc(OC(F)(F)C(F)F)c2)CC(O)C(F)(F)F)c1)C(=O)Nc1ccccc1 (stereo not drawn) [Example 502]
37 | 2.1 | O=C(COc1cccc(N(Cc2cccc(OC(F)(F)C(F)F)c2)CC(O)C(F)(F)F)c1)c1ccccc1 (stereo not drawn) [Example 503]
38 | 1.7 | COCCOc1cccc(N(Cc2cccc(OC(F)(F)C(F)F)c2)CC(O)C(F)(F)F)c1 (stereo not drawn) [Example 505]
39 | 2.3 | OC(CN(Cc1cccc(OC(F)(F)C(F)F)c1)c1cccc(OC2CCOCC2)c1)C(F)(F)F (stereo not drawn) [Example 507]
40 | 2.1 | CCCC(Oc1cccc(N(Cc2cccc(OC(F)(F)C(F)F)c2)CC(O)C(F)(F)F)c1)C(=O)OCC (stereo not drawn) [Example 508]
41 | > 50 | CN(C)CCOc1cccc(N(Cc2cccc(OC(F)(F)C(F)F)c2)CC(O)C(F)(F)F)c1 (stereo not drawn) [Example 511]
42 | 6.1 | CC(C)(CO)COc1cccc(N(Cc2cccc(OC(F)(F)C(F)F)c2)CC(O)C(F)(F)F)c1 (stereo not drawn) [Example 512]
43 | 2.1 | CC(C)(C)C(=O)COc1cccc(N(Cc2cccc(OC(F)(F)C(F)F)c2)CC(O)C(F)(F)F)c1 (stereo not drawn) [Example 513]
44 | 0.34 | OC(CN(Cc1cccc(OC(F)(F)C(F)F)c1)c1cccc(Cc2cccc(C(F)(F)F)c2)c1)C(F)(F)F (stereo not drawn) [Example 514, 3-[[[3-(1,1,2,2-tetrafluoroethoxy)phenyl]methyl][3-[[(3-trifluoromethyl)-phenyl]methyl]phenyl]amino]-1,1,1-trifluoro-2-propanol]
45 | 6.6 | COCc1cccc(N(Cc2cccc(OC(F)(F)C(F)F)c2)CC(O)C(F)(F)F)c1 (stereo not drawn) [Example 514C, 3-[[3(methoxymethyl)phenyl][[3-(1,1,2,2-tetrafluoroethoxy)-phenyl]methyl]amino]-1,1,1-trifluoro-2-propanol]
46 | 3 | O=[N+]([O-])c1cccc(Cc2cccc(N(Cc3cccc(OC(F)(F)C(F)F)c3)CC(O)C(F)(F)F)c2)c1 (stereo not drawn) [Example 516]
47 | 1.6 | Cc1ccc(Cc2cccc(N(Cc3cccc(OC(F)(F)C(F)F)c3)CC(O)C(F)(F)F)c2)cc1 (stereo not drawn) [Example 517]
48 | 0.79 | OC(CN(Cc1cccc(OC(F)(F)C(F)F)c1)c1cccc(Cc2cc(Cl)cc(Cl)c2)c1)C(F)(F)F (stereo not drawn) [Example 518]
